Experimental data published in patent publication US20130204033A1, “ANTIPROLIFERATIVE COMPOUNDS, CONJUGATES THEREOF, METHODS THEREFOR, AND USES THEREOF” (Medarex, Inc., priority 2009, published 2013).

Assays:
Type in all cases: cell-based, human
786-O [1] = assay: ATP luminescence proliferation assay, 786-O
Method: (§1) This example generally describes the procedures used to assay the antiproliferative activity of compounds of this invention or their conjugates. Human tumor cell lines were obtained from the American Type Culture Collection (ATCC), P.O. Box 1549, Manassas, Va. 20108, USA, and cultured according to instruction from the ATCC. Cells were seeded at 1.0×10^3 or 1.0×10^4 cells/well in 96-well plates for 3 h for ATP assays or ^3H thymidine assays, respectively. 1:3 serial dilutions of free (unconjugated) compounds or their conjugates were added to the wells. Plates were allowed to incubate for 24 to 72 h. The ^3H thymidine plates were pulsed with 1.0 μCi of ^3H-thymidine per well for the last 24 hours of the total incubation period, harvested, and read on a Top Count Scintillation Counter (Packard Instruments, Meriden, Conn.). ATP levels in the ATP plates were measured using the […]-GLO® Luminescent Cell Viability kit following the manufacturer's manual and read on a GLOMAX® 20/20 luminometer (both from Promega, Madison, Wis., USA). The EC50 values—the concentration at which an agent inhibits or reduces cell proliferation by 50% —were determined using PRISM™ software, version 4.0 (GraphPad Software, La Jolla, Calif., USA).
(§2) Using the ^3H thymidine or the ATP luminescence assay, or both, the activities of compounds of this invention were assayed against the following cancer cell lines: HCT-15 (colorectal cancer, multi-drug resistant (MDR)); Hep3B (liver cancer); LNCaP (prostate cancer, androgen receptor positive (AR^+)); MDA-MB-231 (breast cancer, estrogen receptor, progesterone receptor, and Her2 negative (triple negative)); A2058 (melanoma); U-87 MG (glioblastoma); NCI-H460 (NSCLC); A549 (NSCLC); HPAC (pancreatic cancer, primary); PC3 (prostate cancer, AR); BT474 (breast cancer, Her2 highly positive (Her2hi)); SKOV3 (ovarian cancer, Her2hi); 786-O (renal cancer); UO-31 (renal cancer, MDR); NCI-H740 (SCLC); DMS53 (SCLC); SK-BR3 (breast cancer, Her2hi); ZR-75 (breast cancer, estrogen receptor positive); OVCAR3 (ovarian cancer); HL-60 (APL); OVCAR8/Adr (ovarian cancer, MDR); CEM-Cl (ALL); Nomo-1 (AML); RPMI-8226 (MM)); Raji (lymphoma); SW-480 (colorectal cancer, metastatic); SW-620 (colorectal cancer); and H226 (lung cancer). (Not all compounds were assayed against all cell lines.)
(§3) FIGS. 12a and 12b show illustrative plots for ATP luminescence proliferation assays for a second set of compounds of this invention, against HL-60 and 786-O cells, respectively, with an incubation period of 72 h. FIGS. 12c and 12d show the plots for ^3H thymidine proliferation assays for the same set of compounds, again against HL-60 and 786-O cells, respectively, with a 72 h incubation period. In each instance, doxorubicin was used as a comparative compound.
(§4) Table 3 provides the data for the ATP luminescence proliferation assays, with an incubation period of 48, 72, or 96 h, as noted.

HL-60 [2] = assay: ATP luminescence proliferation assay, HL-60
Method: as §1, §2, §3, §4

786-O [3] = assay: 3H thymidine proliferation assay, 786-O; conditions: Homo sapiens, 786-0, read-out: EC50, 786-O, 3H thymidine method, 72 h incubation
Method: as §1, §2
(§5) Table 2 provides the data for proliferation assays using the ^3H thymidine method, with an incubation period of 72 h.

HL-60 [4] = assay: 3H thymidine proliferation assay, HL-60; conditions: Homo sapiens, HL-60, read-out: EC50, HL-60, 3H thymidine method, 72 h incubation
Method: as §1, §2, §5

OVCAR8/Adr = assay: ATP luminescence proliferation assay, OVCAR8/Adr; conditions: 48 h incubation period, read-out: EC50 against the OVACAR8/Adr cell line
Method: as §1, §2, §4

H226 = assay: ATP luminescence proliferation assay, H226; conditions: 72 h incubation period, read-out: EC50 against the H226 cell line
Method: as §1, with “The EC50 values—the concentration at which an agent inhibits or reduces cell proliferation by 50% —were determined using PRISM™ software, version 4.0 (GraphPad Software, La Jolla, Calif., USA).” left out
as §2, with “(Not all compounds were assayed against all cell lines.)” left out

HCT-15 [5] = assay: 3H thymidine proliferation assay, HCT-15; conditions: Homo sapiens, HCT-15, read-out: EC50, HCT-15, 3H thymidine method, 72 h incubation
Method: as §1, §2, §5

RPMI-8226 = assay: 3H thymidine proliferation assay, RPMI-8226; conditions: Homo sapiens, RPMI-8226, read-out: EC50, RPMI-8226, 3H thymidine method, 72 h incubation
Method: as §1, §2, §5

NCI-H460 = assay: 3H thymidine proliferation assay, NCI-H460; conditions: Homo sapiens, NCI-H460, read-out: EC50, NCI-H460, 3H thymidine method, 72 h incubation
Method: as §1, §2, §5

LNCaP = assay: 3H thymidine proliferation assay, LNCaP; conditions: Homo sapiens, LNCaP, read-out: EC50, LNCaP, 3H thymidine method, 72 h incubation
Method: as §1, §2, §5

MDA-MB-231 = assay: 3H thymidine proliferation assay, MDA-MB-231; conditions: Homo sapiens, MDA-MB-231, read-out: EC50, MDA-MB-231, 3H thymidine method, 72 h incubation
Method: as §1, §2, §5

HPAC = assay: 3H thymidine proliferation assay, HPAC; conditions: Homo sapiens, HPAC, read-out: EC50, HPAC, 3H thymidine method, 72 h incubation
Method: as §1, §2, §5

CEM-C1 = assay: 3H thymidine proliferation assay, CEM-C1; conditions: Homo sapiens, CEM/C1, read-out: EC50, CEM-C1, 3H thymidine method, 72 h incubation
Method: as §1, §2, §5

SKOV3 = assay: 3H thymidine proliferation assay, SKOV3; conditions: Homo sapiens, SK-OV-3, read-out: EC50, SKOV3, 3H thymidine method, 72 h incubation
Method: as §1, §2, §5

DMS53 = assay: 3H thymidine proliferation assay, DMS53; conditions: Homo sapiens, DMS-53, read-out: EC50, DMS53, 3H thymidine method, 72 h incubation
Method: as §1, §2, §5

A2058 = assay: 3H thymidine proliferation assay, A2058; conditions: Homo sapiens, A2058; 3H thymidine method, 72 h incubation
Method: as §1, §2, §5

Raji = assay: 3H thymidine proliferation assay, Raji; conditions: Homo sapiens, Raji, read-out: EC50, Raji, 3H thymidine method, 72 h incubation
Method: as §1, §2, §5

UO-31 = assay: 3H thymidine proliferation assay, UO-31; conditions: Homo sapiens, UO-31, read-out: EC50, UO-31, 3H thymidine method, 72 h incubation
Method: as §1, §2, §5

ZR-75 = assay: 3H thymidine proliferation assay, ZR-75; conditions: Homo sapiens, ZR75, read-out: EC50, ZR-75, 3H thymidine method, 72 h incubation
Method: as §1, §2, §5

SK-BR3 = assay: 3H thymidine proliferation assay, SK-BR3; conditions: Homo sapiens, SK-BR-3; 3H thymidine method, 72 h incubation
Method: as §1, §2, §5

OVCAR8 = assay: 3H thymidine proliferation assay, OVCAR8; conditions: Homo sapiens, OVCAR-8, read-out: EC50, OVCAR8, 3H thymidine method, 72 h incubation
Method: as §1, §2, §5

H740 = assay: 3H thymidine proliferation assay, H740; conditions: Homo sapiens, read-out: EC50, H740, 3H thymidine method, 72 h incubation
Method: as §1, §2, §5

OVCAR3 [6] = assay: 3H thymidine proliferation assay, OVCAR3; conditions: Homo sapiens, OVCAR-3, read-out: EC50, OVCAR3, 3H thymidine method, 72 h incubation
Method: as §1, §2, §5

Hep3B = assay: 3H thymidine proliferation assay, Hep3B; conditions: Homo sapiens, Hep3B, read-out: EC50, Hep3B, 3H thymidine method, 72 h incubation
Method: as §1, §2, §5

U-87 MG = assay: 3H thymidine proliferation assay, U-87 MG; conditions: Homo sapiens, U-87 MG, read-out: EC50, U-87 MG, 3H thymidine method, 72 h incubation
Method: as §1, §2, §5

A549 = assay: 3H thymidine proliferation assay, A549; conditions: Homo sapiens, A549, read-out: EC50, A549, 3H thymidine method, 72 h incubation
Method: as §1, §2, §5

BT474 = assay: 3H thymidine proliferation assay, BT474; conditions: Homo sapiens, BT-474, read-out: EC50, BT474, 3H thymidine method, 72 h incubation
Method: as §1, §2, §5

Nomo-1 = assay: 3H thymidine proliferation assay, Nomo-1; conditions: Homo sapiens, NOMO-1, read-out: EC50, Nomo-1, 3H thymidine method, 72 h incubation
Method: as §1, §2, §5

PC3 = assay: 3H thymidine proliferation assay, PC3; conditions: Homo sapiens, PC-3, read-out: EC50, PC3, 3H thymidine method, 72 h incubation
Method: as §1, §2, §5

OVCAR3 [7] = assay: ATP luminescence proliferation assay, OVCAR3; conditions: ATP luminescence, OVCAR3, 48 h incubation; read-out: EC50 OVCAR3 (48 h)
Method: as §1, §2, §4

HCT-15 [8] = assay: ATP luminescence proliferation assay, HCT-15; conditions: ATP luminescence, HCT-15, 72 h incubation; read-out: EC50 HCT-15 (72 h)
Method: as §1, §2, §4

[9] = ATP luminescence, 786-O, 72 h incubation, read-out: EC50 786-O (72 h)
[10] = ATP luminescence, HL-60, 48 h incubation, read-out: EC50 HL-60 (48 h)
[11] = ATP luminescence, 786-O, 48 h incubation, read-out: EC50 786-O (48 h)

CCCOCN(C(=O)[C@@H](NC(=O)[C@H]1CCCCN1C)[C@@H](C)CC)[C@H](C[C@@H](OC)c1nc(C(=O)N[C@@H](Cc2ccc(N)cc2)CC(C)C(=O)OCC)cs1)C(C)C (stereo partly shown) [Compound 135]
EC50 (786-O [1]; [9]): 12.9 nM

CCOC(=O)C(C)C[C@H](Cc1ccc(N)cc1)NC(=O)c1csc([C@@H](C[C@H](C(C)C)N(COC)C(=O)[C@@H](NC(=O)[C@H]2CCCCN2C)[C@@H](C)CC)OC)n1 (stereo partly shown) [Compound 134]
EC50 (786-O [1]; [9]): 9.89 nM

CC[C@H](C)[C@H](NC(=O)[C@H]1CCCCN1C)C(=O)N(COC)[C@H](C[C@@H](OC(C)=O)c1nc(C(=O)N[C@@H](Cc2ccccc2)C(=O)OC)cs1)C(C)C [(III-q)]
EC50 (HL-60 [2]; Homo sapiens, HL-60, 72 h, read-out: EC50 HL-60 (72 h), ATP luminescence, HL-60, 72 h incubation): 14.3 nM | EC50 (786-O [3]): 7.61 nM | EC50 (HL-60 [4]): 15.1 nM | EC50 (786-O [1]; Homo sapiens, 786-0, 72 h, read-out: EC50 786-O (72 h), ATP luminescence, 786-O, 72 h incubation): 104 nM

CC[C@H](C)[C@H](NC(=O)[C@H]1CCCCN1C)C(=O)N(C)[C@H](C[C@@H](OC(C)=O)c1nc(C(=O)N[C@@H](Cc2ccc(N)cc2)CC(C)C(=O)OC)cs1)C(C)C (stereo partly shown) [Compound 36a]
EC50 (HL-60 [2]; [10]): 0.048 nM | EC50 (OVCAR8/Adr): 17.1 nM | EC50 (786-O [1]; [9]): 0.434 nM | EC50 (H226): 0.307 nM

CC[C@H](C)[C@H](NC(=O)[C@H]1CCCCN1C)C(=O)N(C)[C@H](C[C@@H](OC)c1nc(C(=O)N[C@@H](C)C(=O)N[C@@H](Cc2ccccc2)C(=O)OC)cs1)C(C)C [Compound 26a]
EC50 (HCT-15 [5]): > 100 nM | EC50 (RPMI-8226): 22 nM | EC50 (NCI-H460): > 100 nM | EC50 (LNCaP): 80 nM | EC50 (MDA-MB-231): > 100 nM | EC50 (HPAC): > 100 nM | EC50 (CEM-C1): 10 nM | EC50 (SKOV3): 47 nM | EC50 (786-O [3]): > 100 nM | EC50 (DMS53): > 100 nM | EC50 (A2058): > 100 nM | EC50 (Raji): 20 nM | EC50 (UO-31): > 100 nM | EC50 (ZR-75): 56 nM | EC50 (SK-BR3): 158 nM | EC50 (OVCAR8): 100 nM | EC50 (H740): 3.2 nM | EC50 (HL-60 [4]): 10 nM | EC50 (OVCAR3 [6]): 21 nM | EC50 (Hep3B): 36 nM | EC50 (U-87 MG): 71 nM | EC50 (A549): > 100 nM | EC50 (BT474): 7 nM | EC50 (Nomo-1): 2 nM | EC50 (PC3): > 100 nM

CCOC(=O)C(C)C[C@H](Cc1ccc(N)cc1)NC(=O)c1csc([C@@H](C[C@H](C(C)C)N(COC(=O)CC(C)C)C(=O)[C@@H](NC(=O)[C@H]2CCCCN2C)[C@@H](C)CC)OC)n1 (stereo partly shown) [Compound 133]
EC50 (786-O [1]; [9]): 4.17 nM

CC[C@H](C)[C@H](NC(=O)[C@H]1CCCCN1C)C(=O)N(C)[C@H](C[C@@H](OC(C)=O)c1nc(C(=O)N[C@@H](Cc2ccc(N)cc2)C[C@@H](C)C(=O)O)cs1)C(C)C [Compound 84b]
EC50 (OVCAR3 [7]): 4.91 nM | EC50 (HL-60 [2]; [10]): 16 to 27 nM | EC50 (OVCAR8/Adr): 47.2 nM | EC50 (786-O [1]; [11]): 4.1 nM | EC50 (HCT-15 [8]): 22.8 nM

CC[C@H](C)[C@H](NC(=O)[C@H]1CCCCN1C)C(=O)N(C)[C@H](C[C@@H](OC(C)=O)c1nc(C(=O)N[C@@H](Cc2ccc(N)cc2)C[C@H](C)C(=O)O)cs1)C(C)C [Compound 84a]
EC50 (OVCAR3 [7]): 8.19 nM | EC50 (HL-60 [2]; [10]): 10 to 28 nM | EC50 (OVCAR8/Adr): > 300 nM | EC50 (786-O [1]; [11]): 6.12 nM | EC50 (HCT-15 [8]): 138 nM
